Assay results taken from patent US11883387B2, “PqsR inverse agonists” (HELMHOLTZ-ZENTRUM FÜR INFEKTIONSFORSCHUNG GMBH, priority 2018, dated 2024).

Columns and labels:
[1] = Kinetic Turbidimetric Aqueous Solubility at room temperature for 5 min; format: physicochemical; conditions: PBS buffer, kinetic from dmso stock, 2% DMSO
Method: Kinetic Turbidimetric Aqueous Solubility at room temperature for 5 min. Test compound was diluted in PBS buffer to give a range of concentrations (typically 0.4, 2, 4, 20, 40, 100, and 200 μM, final DMSO concentration 2%) and incubated at room temperature for 5 min. Absorbance was measured at a wavelength of 620 nm and the solubility was estimated from the concentration of test compound that produces an increase in absorbance above the vehicle control (i.e., […]). Data was analyzed by fitting a four parameter sigmoidal function to the measured and normalized absorbances and AUC calculation providing access to Log S (decadic logarithm of the solubility).

[2] = target: PqsR (Pseudomonas aeruginosa, UniProt Q9I4X0); test: E. coli based β-galactosidase reporter gene assay (PqsR inverse agonistic activity); format: cell-based; design: expressed in transfected cells; host or cells: Escherichia coli DH5α
Chain of PqsR (Q9I4X0 whole entry): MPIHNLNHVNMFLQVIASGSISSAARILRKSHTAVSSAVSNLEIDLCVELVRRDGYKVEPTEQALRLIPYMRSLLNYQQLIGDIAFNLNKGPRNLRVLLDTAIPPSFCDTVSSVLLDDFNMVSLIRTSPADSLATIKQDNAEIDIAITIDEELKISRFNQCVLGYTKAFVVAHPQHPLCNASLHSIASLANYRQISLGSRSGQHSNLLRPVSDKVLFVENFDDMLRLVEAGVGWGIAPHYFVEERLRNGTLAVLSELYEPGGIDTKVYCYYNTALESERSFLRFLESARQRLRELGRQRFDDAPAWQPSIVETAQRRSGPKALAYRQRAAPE
Outline: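 E. coli DH5α carrying pEAL08-2 (tac-driven pqsR with pqsA-lacZ) was grown to OD600 0.2 and incubated with 0.001–10 μM compound plus 50 nM PQS for 2.5 h at 37 °C. β-Galactosidase activity was measured by ONPG conversion in permeabilized cells and normalized between the no-PQS and solvent controls. IC50 came from concentration variation.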

[3] = tested on: P. aeruginosa pyocyanin production; test: Pyocyanin assay; format: cell-based, P. aeruginosa PA14; conditions: Pseudomonas aeruginosa, PA14, 16 h, read-out: IC50-value towards pyocyanin production, PA14 in PPGAS medium, 16 h
Outline: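 PA14 in PPGAS medium from OD600 0.02 grown 16 h at 37 °C, 200 rpm, with compounds. Pyocyanin extracted with chloroform, back-extracted into 0.2 M HCl, OD520 normalised to OD600.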

Structure (SMILES) | solubility at 5 min [1] [µM] | IC50 [2] [nM] | IC50 [3] [nM]
N#Cc1cc(NCc2cn(-c3ccc(Oc4ccccc4)cc3)nn2)cc(Cl)n1 [Compound 051, 6-Chloro-4-(((1-(4-phenoxyphenyl)-1H-1,2,3-triazol-4-yl)methyl)amino)picolinonitrile] | > 50 | ≤ 50 | ≤ 250
FC(F)(F)c1cc(NCc2nc3cc(Oc4ccccc4)ccc3[nH]2)ccn1 [Compound 182, N-((5-phenoxy-1H-benzo[d]imidazol-2-yl)methyl)-2-(trifluoromethyl)pyridin-4-amine] | > 50 | ≤ 50 | 251 to 1000
FC(F)(F)c1cc(NCc2cn(-c3ccc(OC4CCC4)c(Cl)c3)nn2)ccn1 [Compound 047, N-((1-(3-chloro-4-cyclobutoxyphenyl)-1H-1,2,3-triazol-4-yl)methyl)-2-(trifluoromethyl)pyridin-4-amine] | > 25 | ≤ 50 | ≤ 250
FC(F)(F)c1cc(SCc2nc3cc(Sc4ccccc4)ccc3[nH]2)ccn1 [Compound 176, 5-(phenylthio)-2-(((2-(trifluoromethyl)pyridin-4-yl)thio)methyl)-1H-benzo[d]imidazole] | > 10 | ≤ 50 | 251 to 1000
FC(F)(F)c1cc(NCc2nnc(-c3ccc(Oc4ccccc4)cc3)[nH]2)ccn1 [Compound 095, N-((5-(4-Phenoxyphenyl)-4H-1,2,4-triazol-3-yl)methyl)-2-(trifluoromethyl)pyridin-4-amine] | > 25 | 51 to 250 | 251 to 1000
FC(F)(F)c1cc(NCc2cnc(-c3ccc(C4CC4)cc3)nc2)ccn1 [Compound 107, N-((2-(4-Cyclopropylphenyl)pyrimidin-5-yl)methyl)-2-(trifluoromethyl)pyridin-4-amine] | > 10 | 51 to 250 | 251 to 1000
FC(F)(F)c1cc(NCc2cc(-c3ccc(Oc4ccccc4)cc3)n[nH]2)ccn1 [Compound 096, N-((3-(4-Phenoxyphenyl)-1H-pyrazol-5-yl)methyl)-2-(trifluoromethyl)pyridin-4-amine] | > 10 | 51 to 250 | 251 to 1000
FC(F)(F)c1cc(NCc2cn(-c3ccc(OC4CCOC4)c(Cl)c3)nn2)ccn1 (stereo not drawn) [Compound 153, N-((1-(3-chloro-4-((tetrahydrofuran-3-yl)oxy)phenyl)-1H-1,2,3-triazol-4-yl)methyl)-2-(trifluoromethyl)pyridin-4-amine] | > 25 | ≤ 50 | 251 to 1000
FC(F)(F)c1cc(NCc2cn(-c3ccc(OC4CC4)c(Cl)c3)nn2)ccn1 [Compound 154, N-((1-(3-chloro-4-cyclopropoxyphenyl)-1H-1,2,3-triazol-4-yl)methyl)-2-(trifluoromethyl)pyridin-4-amine] | > 10 | ≤ 50 | 251 to 1000
COC(=O)c1ccc(Oc2ccc3[nH]c(CSc4ccnc(C(F)(F)F)c4)nc3c2)cc1 [Compound 179, methyl 4-((2-(((2-(trifluoromethyl)pyridin-4-yl)thio)methyl)-1H-benzo[d]imidazol-5-yl)oxy)benzonate] | > 10 | 251 to 1000 | 1000 to 5000
Nc1cc(SCc2nc3cc(Oc4ccccc4)ccc3[nH]2)cc(C(F)(F)F)n1 [Compound 183, 4-(((5-phenoxy-1H-benzo[d]imidazol-2-yl)methyl)thio)-6-(trifluoromethyl)pyridin-2-amine] | > 25 | ≤ 50 | ≤ 250
